These results are taken from ChEMBL document CHEMBL1201862, “PubChem BioAssay data set” (2004).

Each structure is given as a SMILES string.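 Tested at 5 concentrations; 48 h exposure; 96-well plates; endpoints linearly interpolated, else capped at highest concentration. The concentration for 50% growth inhibition is given as GI50.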 The source made the active and inactive calls. Rule as the data show it: active = GI50 up to about 1.1 µM and inactive = higher.

Some test systems named below: CAKI-1; MCF7; MOLT-4; OVCAR-8; Hs-578T; HOP-62; MDA-MB-435; SK-MEL-28; HCT-15; BT-549; A549; LOX IMVI; HT-29; KM12; SR; Malme-3M; SK-MEL-5; NCI/ADR-RES; K562; SNB-75.
Common to all, as to test: NCI anticancer screen, dose series, 48 h

As to `COc1cc(O)c(C(=O)/C=C/c2ccccc2)c(OC)c1` [FLAVOKAWAIN B], the GI50 in the assay on CAKI-1 was 5.28 µM (inactive); in the assay with MCF7, 7.8 µM (inactive); in the assay with MOLT-4 it was 5.37 µM (inactive); in the assay with OVCAR-8 it was 3.64 µM (inactive); with Hs-578T it was 3.2 µM (inactive); in the assay with HOP-62, 12 µM (inactive). The GI50 in the assay on MDA-MB-435 was 4.71 µM (inactive); in the assay on SK-MEL-28, 3.34 µM (inactive); in the assay with HCT-15, 4.51 µM; with BT-549 it was 4.47 µM (inactive); in the assay with A549 it was 10.3 µM (inactive); in the assay with LOX IMVI, 2.29 µM (inactive). The GI50 in the assay on HT-29 is 7.66 µM (inactive); in the assay on KM12, 3.52 µM (inactive); in the assay on SR it was 1.85 µM (inactive); in the assay with Malme-3M, 4.61 µM (inactive); in the assay with SK-MEL-5 it was 9.27 µM (inactive); with NCI/ADR-RES it was 3.8 µM (inactive).
With `CC1(C)C2CCC(CN)(C2)C1N` (stereo not given), the GI50 in the assay with CAKI-1 is > 100 µM (inactive); in the assay with MCF7, > 100 µM (inactive); with MOLT-4, > 100 µM (inactive); with OVCAR-8 it was > 100 µM (inactive); in the assay with K562 it was > 100 µM (inactive); in the assay with SNB-75, > 54.5 µM (inactive). Also, the GI50 was > 100 µM (inactive) with Hs-578T; > 100 µM (inactive) with HOP-62; > 100 µM (inactive) with MDA-MB-435; > 100 µM (inactive) in the assay on SK-MEL-28; more than 100 µM in the assay on HCT-15; > 100 µM (inactive) in the assay with BT-549. Further, the GI50 in the assay on A549, in the assay with LOX IMVI, in the assay on HT-29, in the assay on KM12, in the assay with Malme-3M and with SK-MEL-5 was > 100 µM (inactive) each time. Besides, in the assay on NCI/ADR-RES, the GI50 is > 100 µM (inactive).
As for `CNc1ccc([S+]([O-])Nc2ccc(OC)cc2)cc1` (stereo not given), the GI50 in the assay on CAKI-1 is 65.5 µM (inactive); in the assay on MCF7 it was 79.6 µM (inactive); in the assay on MOLT-4, 51.8 µM (inactive); in the assay on OVCAR-8 it was 86.3 µM (inactive); in the assay on K562, 21.3 µM (inactive); in the assay with Hs-578T, > 100 µM (inactive). The GI50 is > 100 µM (inactive) in the assay on HOP-62; 14.2 µM (inactive) with MDA-MB-435; 93.3 µM (inactive) in the assay with SK-MEL-28; more than 100 µM in the assay with HCT-15; 2.06 µM (inactive) in the assay on BT-549; 66.2 µM (inactive) in the assay on A549. Further, the GI50 in the assay on LOX IMVI is 7.38 µM (inactive); in the assay on HT-29, 33.7 µM (inactive); with KM12, 3.86 µM (inactive); in the assay on SR it was > 100 µM (inactive); with Malme-3M it was 41.7 µM (inactive); in the assay with SK-MEL-5, 19.3 µM (inactive). The GI50 with NCI/ADR-RES is 27.9 µM (inactive).
For `O=C(O)c1ccc(C=C2Sc3ccccc3S2)cc1`, the GI50 in the assay with CAKI-1 is 45.3 µM (inactive); with MCF7, 35 µM (inactive); with MOLT-4, 42.4 µM (inactive); in the assay on OVCAR-8 it was > 100 µM (inactive); in the assay with K562, 70.5 µM (inactive); with Hs-578T, 24 µM (inactive). Besides, the GI50 in the assay with HOP-62 was 81.5 µM (inactive); in the assay with MDA-MB-435, 21.1 µM (inactive); with HCT-15, 37.2 µM; in the assay on BT-549, 62.7 µM (inactive); in the assay with A549, 43.2 µM (inactive); with LOX IMVI, 52 µM (inactive). Also, the GI50 in the assay on HT-29 is 43.5 µM (inactive); in the assay with KM12, 46.7 µM (inactive); in the assay on Malme-3M it was 84.7 µM (inactive); with SK-MEL-5 it was 51.6 µM (inactive); with NCI/ADR-RES it was 59.3 µM (inactive).
Consider `COC(=O)[C@H](Cc1ccccc1)NC(=O)N(CCN(CCC#N)C(=O)N[C@H](C(=O)OC)C(C)C)c1ccccc1`, for which the GI50 was > 100 µM (inactive) in the assay with CAKI-1; > 100 µM (inactive) in the assay on MCF7; 24.3 µM (inactive) with MOLT-4; > 100 µM (inactive) in the assay with OVCAR-8; > 100 µM (inactive) with SNB-75; > 100 µM (inactive) in the assay on Hs-578T. The GI50 was > 100 µM (inactive) in the assay with HOP-62; 85.3 µM (inactive) with MDA-MB-435; > 100 µM (inactive) in the assay with SK-MEL-28; more than 100 µM in the assay with HCT-15; > 100 µM (inactive) in the assay with BT-549; > 100 µM (inactive) in the assay with A549. The GI50 was > 100 µM (inactive) in the assay with LOX IMVI; > 100 µM (inactive) in the assay on KM12; 43.7 µM (inactive) with Malme-3M; 52.6 µM (inactive) in the assay on SK-MEL-5; > 100 µM (inactive) with NCI/ADR-RES.
For the compound `N#CC(C#N)=C1CCCCc2ccc([N+](=O)[O-])cc21`, the GI50 in the assay with CAKI-1 is 95.7 µM (inactive); in the assay on MCF7, 38.7 µM (inactive); in the assay with MOLT-4, 41.8 µM (inactive); in the assay on OVCAR-8 it was > 100 µM (inactive); in the assay on K562, 39.4 µM (inactive); in the assay on SNB-75 it was > 100 µM (inactive). Further, the GI50 in the assay with Hs-578T is > 100 µM (inactive); in the assay with HOP-62, > 100 µM (inactive); in the assay on MDA-MB-435, > 100 µM (inactive); in the assay with SK-MEL-28 it was > 100 µM (inactive); in the assay on HCT-15, 63.7 µM; in the assay on BT-549 it was > 100 µM (inactive). The GI50 with A549 was > 100 µM (inactive); with LOX IMVI, 76.2 µM (inactive); in the assay on HT-29, 78.9 µM (inactive); with KM12 it was > 100 µM (inactive); in the assay on Malme-3M, > 100 µM (inactive); in the assay on SK-MEL-5, > 100 µM (inactive). For the same compound, the GI50 in the assay on NCI/ADR-RES is > 100 µM (inactive).
Take `C=CCN(c1cc(O)c2c(c(C)cn2S(=O)(=O)c2ccccc2)c1[N+](=O)[O-])S(C)(=O)=O`: the GI50 in the assay with CAKI-1 was > 100 µM (inactive); in the assay on MCF7 it was > 100 µM (inactive); in the assay with MOLT-4 it was 42.4 µM (inactive); in the assay on OVCAR-8, > 100 µM (inactive); with K562 it was 38.5 µM (inactive); in the assay with SNB-75, > 100 µM (inactive). Moreover, the GI50 is > 100 µM (inactive) with Hs-578T; > 100 µM (inactive) with HOP-62; 29.2 µM (inactive) with MDA-MB-435; > 100 µM (inactive) in the assay on SK-MEL-28; more than 100 µM with HCT-15; > 100 µM (inactive) in the assay on BT-549. In addition, the GI50 in the assay on A549 was 56.5 µM (inactive); in the assay with LOX IMVI it was 69.2 µM (inactive); in the assay with HT-29, > 100 µM (inactive); in the assay on KM12, > 100 µM (inactive); in the assay with Malme-3M it was > 100 µM (inactive); with SK-MEL-5 it was 51.4 µM (inactive). Further, the GI50 in the assay with NCI/ADR-RES is > 100 µM (inactive).
As to `Cc1c(NC(=O)c2cc([N+](=O)[O-])cc([N+](=O)[O-])c2)c(=O)n(-c2ccccc2)n1C`, the GI50 was > 100 µM (inactive) in the assay with CAKI-1; 61.7 µM (inactive) in the assay on MCF7; > 100 µM (inactive) in the assay with MOLT-4; > 100 µM (inactive) in the assay on OVCAR-8; > 100 µM (inactive) with K562; > 100 µM (inactive) with Hs-578T. In addition, the GI50 is > 100 µM (inactive) with HOP-62; > 100 µM (inactive) in the assay with MDA-MB-435; > 100 µM (inactive) in the assay on SK-MEL-28; 83.9 µM in the assay with HCT-15; > 100 µM (inactive) with BT-549; > 100 µM (inactive) with A549. Further, the GI50 in the assay with LOX IMVI is > 100 µM (inactive); with HT-29, 33.2 µM (inactive); in the assay on KM12 it was 82.2 µM (inactive); with SR it was 69.8 µM (inactive); in the assay on Malme-3M, 27.3 µM (inactive); in the assay on SK-MEL-5 it was > 100 µM (inactive). Further, in the assay on NCI/ADR-RES, the GI50 was > 100 µM (inactive).
Turning to `CN1C(=O)C2CCCC(=O)N2c2cccnc21` (stereo not given), the GI50 in the assay with CAKI-1, in the assay on MCF7, with MOLT-4, in the assay with OVCAR-8, in the assay on K562 and in the assay on Hs-578T was > 100 µM (inactive) throughout. For the same compound, the GI50 in the assay with HOP-62 was > 100 µM (inactive); in the assay with MDA-MB-435, > 100 µM (inactive); in the assay with SK-MEL-28 it was > 100 µM (inactive); in the assay with HCT-15, more than 100 µM; in the assay with BT-549, > 100 µM (inactive); in the assay on A549 it was > 100 µM (inactive). Besides, the GI50 in the assay on LOX IMVI, in the assay with HT-29, with KM12, in the assay on SR, with Malme-3M and in the assay with SK-MEL-5 was > 100 µM (inactive) each time. For the same compound, the GI50 with NCI/ADR-RES is > 100 µM (inactive).
With `COc1cc2c(cc1OC)-c1[nH]c3ccc(C#N)cc3c1CC(=O)N2`, the GI50 with CAKI-1 was 1.56 µM (inactive); in the assay with MCF7, 4.71 µM (inactive); in the assay with MOLT-4 it was 2.65 µM (inactive); in the assay on OVCAR-8, 4.2 µM (inactive); with SNB-75, 0.44 µM (active); in the assay on Hs-578T, 0.861 µM (active). In addition, the GI50 in the assay with HOP-62 was 3.86 µM (inactive); in the assay on MDA-MB-435, 8.79 µM (inactive); in the assay on SK-MEL-28, > 26.3 µM (inactive); in the assay on HCT-15, 4.02 µM; with BT-549, 10.5 µM (inactive); in the assay with A549 it was 5.26 µM (inactive). Further, the GI50 was 2.09 µM (inactive) with LOX IMVI; 3.88 µM (inactive) with HT-29; 1.71 µM (inactive) in the assay on KM12; > 28.5 µM (inactive) with Malme-3M; 3.23 µM (inactive) with SK-MEL-5; > 100 µM (inactive) in the assay on NCI/ADR-RES.
On to `COc1ccc2c(c1)/C(=C\c1cccc(/C=C3/C(=O)Nc4ccc(OC)cc43)n1)C(=O)N2`, for which the GI50 in the assay with CAKI-1 is 1.99 µM (inactive); with MCF7, 0.466 µM (active); in the assay on MOLT-4, 0.261 µM (active); in the assay with OVCAR-8 it was 1.17 µM (inactive); with K562, 0.412 µM (active); with SNB-75 it was 19.1 µM (inactive). Besides, the GI50 was 4.35 µM (inactive) in the assay with Hs-578T; 1.55 µM (inactive) in the assay on HOP-62; 1.17 µM (inactive) in the assay with MDA-MB-435; 1.56 µM in the assay on HCT-15; 0.91 µM (active) in the assay with BT-549; 3.05 µM (inactive) in the assay on A549. Also, the GI50 with KM12 is 1.78 µM (inactive); with Malme-3M, 2.01 µM (inactive); with SK-MEL-5, 0.834 µM (active); in the assay on NCI/ADR-RES, 8.85 µM (inactive).
